Converted amounts (≈) assume the structure as drawn. Read-outs that look alike come from different tables or passages of the source. Marks after values point to notes of the source that are not given here. Positions of bridges follow the written chain, without caps; N, C: chain ends. Residues, ends and D or L forms follow the SMILES beside them.
How the values were obtained:
S. aureus E48 [1] = assay: In vitro dose-killing curves (24 h); assay type: cell-based, Staphylococcus aureus; details: for EC50: Staphylococcus aureus, 50% reduction in Log10 CFU at 24 h between minimum and maximum; for Cs: concentration causing no apparent growth in Log10 CFU at 24 h vs initial inoculum
Description: (§1) The in vitro dose-killing curves of NZX against the test S. aureus strains were conducted as previous described (Brinch et al. [2010]), with some modification. The S. aureus cells in mid-log phage were diluted. Then, the killing curves of NZX against S. aureus strains were carried out in the 48-well plate. Specifically, a volume of 50 μL NZX (0.6–150 μM) was mixed with 450 μL of the above diluted bacterial suspension (5 × 10^5 CFU/mL), and the mixtures were incubated in the Micro Oscillator for 24 h (600 rpm, 37 °C). Subsequently, the bacteria suspensions were plated on MHA medium to count. Lincomycin and ceftiofur were set as antibiotic controls, respectively. PBS was negative control. Results were expressed as the average of three independent experiments data.

S. aureus ATCC 25923 [2] = assay: In vitro dose-killing curves (24 h); assay type: cell-based, Staphylococcus aureus; details: for EC50: Staphylococcus aureus, ATCC25923, 50% reduction in Log10 CFU at 24 h between minimum and maximum; for Cs: concentration causing no apparent growth in Log10 CFU at 24 h vs initial inoculum
Description: as §1

S. aureus ATCC 43300 [3] = assay: MIC and MBC determination (CLSI broth microdilution); assay type: cell-based; details: Staphylococcus aureus; for MIC: ATCC43300, 1 × 10^5 CFU/mL, 16–18 h, 37 °C; for MBC: ATCC43300, lowest concentration giving 99.9% died bacteria
Description: (§2) Minimal Inhibitory Concentration (MIC), Minimal Bactericidal Concentration (MBC) and Mutant Prevention Concentration (MPC).
(§3) The MIC and MBC values of NZX against the test S. aureus strain were determined according to Clinical Laboratory Standards Institute (Watts et al. [2013]). Briefly, a volume of 10 μL diluted NZX with final concentration (1.25–1280 μg/mL) and 90 μL of mid-log phase S. aureus cells (1 × 10^5 CFU/mL) were added into a 96-well plate and co-incubated for 16–18 h at 37 °C. MIC value was defined as the lowest concentration of NZX at which no visible bacterial growth was observed. In addition, the bacteria suspensions were plated on Mueller–Hinton agar (MHA) medium to count, and the lowest concentration of NZX that results in 99.9% of died bacteria was the MBC value.

S. aureus E48 [4] = assay: as above; assay type: cell-based; details: Staphylococcus aureus; for MIC: 1 × 10^5 CFU/mL, 16–18 h, 37 °C; for MBC: lowest concentration giving 99.9% died bacteria
Description: as §2, §3

S. aureus ATCC 25923 [5] = assay: as above; assay type: cell-based; details: Staphylococcus aureus; for MIC: ATCC25923, 1 × 10^5 CFU/mL, 16–18 h, 37 °C; for MBC: ATCC25923, lowest concentration giving 99.9% died bacteria
Description: as §2, §3

S. aureus ATCC 43300 [6] = assay: Cell membrane permeability, PI staining by flow cytometry; assay type: cell-based, Staphylococcus aureus
Description: Flow cytometry was used for the analysis of the effects of NZX on the penetration rate of the S. aureus cell membrane (Yang et al. [2019]). The S. aureus cells in mid-log phase were adjusted to 1 × 10^8 CFU/mL and the bacteria suspensions were treated with 1 × , 2 × and 4 × MIC of NZX for 2 h at 37 °C. In addition, the cell suspensions were incubated with 2 × MIC of NZX for 0 h, 0.5 h, 1 h and 2 h, respectively. After incubation, the cells were centrifuged at 4000 rpm at 4 °C for 5 min, washed twice with sterile PBS, and pellets were resuspended in 1 mL of PBS. Next, cells were stained with 50 µg/mL propidium iodide (PI) for 30 min in the dark at room temperature, and the proportion of cells with PI positive cells to the total cells were analyzed by flow-cytometry (BD, USA). Lincomycin and ceftiofur were used as positive controls and PBS as negative control. Three replicates for each treatment were conducted.

S. aureus ATCC 43300 [7] = assay: Mutant prevention concentration (MPC) on MHA plates; assay type: cell-based, Staphylococcus aureus; details: 1 × 10^10 CFU/mL, 37 °C, 72 h, each concentration three times
Description: as §2
MPCs of NZX against the test S. aureus strain were determined as described by Plowgian et al., with some modification (Plowgian et al. [2019]). In brief, S. aureus cells were cultured to mid-log phase in Mueller–Hinton broth (MHB) medium. Then the suspensions were centrifuged (4000 rpm for 5 min) and the pellets were collected and diluted to a final concentration of 1 × 10^10 CFU/mL with MHB. […] All plates were incubated at 37 ^∘C for 72 h and the concentration corresponding to the plate with no bacterial growth was regarded as the provisional mutant prevention concentration (MPCpr). […] Lincomycin and ceftiofur were set as antibiotic controls, respectively. Each concentration was conducted three times.

S. aureus ATCC 43300 [8] = details: 1 × 10^5 CFU/mL, 16–18 h, 37 °C, value marked a, already published, ref Zheng et al. [2022]; cited from earlier work
Description: Table 1 The MICs, MBCs and MPCs of NZX and antibiotics against S. aureus strains (μM) | column: S. aureus ATCC 43300 / MIC

[9] = 2 × MIC, range over 0, 0.5, 1 and 2 h
[10] = 2 h, range over 1 × MIC, 2 × MIC and 4 × MIC

Q: What does the source list for `CO/N=C(\C(=O)N[C@@H]1C(=O)N2C(C(=O)O)=C(CSC(=O)c3ccco3)CS[C@H]12)c1csc(N)n1` [Ceftiofur]?
A: EC50 (S. aureus E48 [1]): 1180 nM; Cs (S. aureus E48 [1]): 1.11 µM; EC50 (S. aureus ATCC 25923 [2]): 710 nM; Cs (S. aureus ATCC 25923 [2]): 0.77 µM; MIC (S. aureus ATCC 43300 [3]): 1.83 µM (≈ 0.958 µg/mL); MBC (S. aureus ATCC 43300 [3]): 1.83 µM (≈ 0.958 µg/mL); MIC (S. aureus E48 [4]): 1.83 µM (≈ 0.958 µg/mL); MBC (S. aureus E48 [4]): 3.67 µM (≈ 1.92 µg/mL); MIC (S. aureus ATCC 25923 [5]): 1.83 µM (≈ 0.958 µg/mL); MBC (S. aureus ATCC 25923 [5]): 3.67 µM (≈ 1.92 µg/mL); percentage of PI-positive cells (S. aureus ATCC 43300 [6]; [9]): 1.82–24.20%; percentage of PI-positive cells (S. aureus ATCC 43300 [6]; [10]): 15.5–15.8%; MPC (S. aureus ATCC 43300 [7]): 7.32 µM

Q: Which EC50 (S. aureus E48 [1]) does the source give for `CCC[C@@H]1C[C@@H](C(=O)N[C@@H]([C@H]2O[C@H](SC)[C@H](O)[C@@H](O)[C@H]2O)[C@@H](C)O)N(C)C1` [Lincomycin] here?
A: 1470 nM

Q: What about the Cs (S. aureus E48 [1]) of the same compound?
A: 1.38 µM

Q: What about the EC50 (S. aureus ATCC 25923 [2]) of the same compound?
A: 2310 nM

Q: What about the Cs (S. aureus ATCC 25923 [2]) of the same compound?
A: 2.57 µM

Q: What about the MIC (S. aureus ATCC 43300 [3]) of the same compound?
A: > 139 µM

Q: And the MBC (S. aureus ATCC 43300 [3])?
A: > 139 µM

Q: And the MIC (S. aureus E48 [4])?
A: 2.17 µM (≈ 0.882 µg/mL)

Q: And the MBC (S. aureus E48 [4])?
A: 4.34 µM (≈ 1.76 µg/mL)

Q: What about the MIC (S. aureus ATCC 25923 [5]) of the same compound?
A: 2.17 µM (≈ 0.882 µg/mL)

Q: What about the MBC (S. aureus ATCC 25923 [5]) of the same compound?
A: 4.34 µM (≈ 1.76 µg/mL)

Q: For `CC[C@H](C)[C@@H]1NC(=O)[C@H](CO)NC(=O)[C@H](CCCCN)NC(=O)[C@@H]2CSSC[C@@H](C(=O)N[C@@H](Cc3ccc(O)cc3)C(=O)O)NC(=O)[C@H](CCCCN)NC(=O)[C@@H]3CSSC[C@H](NC(=O)[C@H](CCC(N)=O)NC(=O)[C@H]([C@@H](C)CC)NC(=O)[C@H](CC(=O)O)NC(=O)[C@H](CC(=O)O)NC(=O)[C@H](CCC(=O)O)NC(=O)[C@H](CO)NC(=O)[C@H](Cc4c[nH]c5ccccc45)NC(=O)[C@@H]4CCCN4C(=O)CNC(=O)[C@H](CC(N)=O)NC(=O)[C@@H](NC(=O)CNC(=O)[C@H](Cc4ccccc4)NC(=O)CN)CSSC[C@H](NC(=O)[C@H](Cc4ccc(O)cc4)NC(=O)CNC(=O)CNC(=O)[C@H](CCCCN)NC(=O)[C@H](Cc4ccc(O)cc4)NC(=O)CNC(=O)[C@H](CCCCN)NC1=O)C(=O)N[C@@H](C)C(=O)N[C@@H](CCCNC(=N)N)C(=O)NCC(=O)NCC(=O)N[C@@H](Cc1ccccc1)C(=O)N[C@@H](C(C)C)C(=O)N3)C(=O)N[C@@H](Cc1c[nH]cn1)C(=O)N[C@@H](CC(N)=O)C(=O)N[C@@H](Cc1c[nH]cn1)C(=O)N2` [NZX] (H-GFGCNGPWSEDDIQCHNHCKSIKGYKGGYCARGGFVCKCY-OH; disulfide 4-30, 15-37, 19-39; N-terminus and C-terminus assumed), which MIC (S. aureus ATCC 43300 [8]) is on record?
A: 0.23^a μM

Q: What about the “percentage of PI-positive cells” value (S. aureus ATCC 43300 [6]; [9]) of the same compound?
A: 1.91 to 75.17%

Q: And the “percentage of PI-positive cells” value (S. aureus ATCC 43300 [6]; [10])?
A: 57.1–75.1%

Q: And the MPC (S. aureus ATCC 43300 [7])?
A: 1.18 µM
